Several values for one entry are separate records, joined by “and”; a condition that tells them apart may be missing. Equal values may be shown once.
Legend:
[1] = tested on: auricle of hairless mouse (HR-1, female); test: External blood circulation enhancing action: vasodilatory effect (red spots) on auricle of hairless mouse; format: in vivo; parameters: key to Vasodilatory effect for hairless mouse (red spots, visual): ◯: clear red spots can be confirmed; Δ: weak red spots can be confirmed; x: no development of red spots; details: for Vasodilatory effect for hairless mouse (red spots, visual): applied to right ear; for Vasodilating effect: 5 wt % solution, solvents as in Tables 2 and 3
Protocol: The compound of each Example and capsaicin analog were compared for vasodilatory effect using auricle of hairless mouse. [Test method] A sample was applied to the right ear of hairless mouse (HR-1, female), and a control was applied to the left ear. Presence or absence of red spots development was visually evaluated, and evaluated according to the following indices. ◯: clear red spots can be confirmed Δ: weak red spots can be confirmed x: no development of red spots The samples were dissolved in liquid paraffin or ethanol. samples: Control: liquid paraffin or ethanol

[2] = Stability on contact with silica gel, yield (recovery rate) of PTLC purification as index; format: physicochemical
Protocol: Using vanillyl alcohol (1.70 g, 11.0 mmol) instead of piperonyl alcohol, and n-decanoic acid (1.72 g, 10 mmol) instead of 8-methylnonanoic acid in Example 1, a reaction similar to Example 1 was performed.
Using the yield (recovery rate) of purification by silica gel chromatography (PTLC) as an index, the stability of each Example compound was confirmed.

Row | SMILES | Vasodilatory effect for hairless mouse (red spots, visual) ([1]; 5 wt % in ethanol) | Vasodilatory effect for hairless mouse (red spots, visual) ([1]; 5 wt % in liquid paraffin) | Vasodilating effect [1] | Stability on purification by PTLC (contact with silica gel), in words [2] | Yield (recovery rate) after purification by PTLC, index of stability [2] | further results
1 | COc1cc(CNC(=O)CCCC/C=C/C(C)C)ccc1O [capsaicin, reference compound] | ∘ | ∘ | – | – | – | Vasodilatory effect for hairless mouse (red spots, visual) ([1]; 1 wt % in liquid paraffin): ∘
2 | COc1cc(COC(=O)CCCC/C=C/C(C)C)ccc1O [capsiate, 4-hydroxy-3-methoxybenzyl (E)-8-methyl-6-nonenoate, reference compound] | ∘ | ∘ | – | – | – | Vasodilatory effect for hairless mouse (red spots, visual) ([1]; 1 wt % in liquid paraffin): Δ
3 | CC(C)CCCCCCC(=O)OCc1ccc2c(c1)OCO2 [compound A, Piperonyl 8-methylnonanoate] | – | Δ | weak vasodilating effect | stabler than vanillyl decanoate even upon contact with silica gel | 84.3% | –
4 | CC(C)CCCCCC(=O)OCc1ccc2c(c1)OCO2 [compound A-1, Piperonyl 7-methyloctanoate] | x | x | did not show a vasodilating effect | – | – | –
5 | CC(C)CCCCC(=O)OCc1ccc2c(c1)OCO2 [compound A-2, Piperonyl 6-methylheptanoate] | x | x | did not show a vasodilating effect | – | – | –
6 | COc1ccc(COC(=O)CCCCCCC(C)C)cc1O [compound B, Isovanillyl 8-methylnonanoate] | – | ∘ | strong vasodilating effect | not decomposed even after purification by PTLC | 81.0% | –
7 | COc1ccc(COC(=O)CCCCCC(C)C)cc1O [compound B-1, Isovanillyl 7-Methyloctanoate] | – | Δ | weak vasodilating effect | – | – | –
8 | CCC(C)CCCCCC(=O)OCc1ccc(OC)c(O)c1 (stereo not shown) [compound B-2, Isovanillyl 7-methyl Nonanoate] | ∘ | x | – | – | – | Vasodilatory effect in words ([1]; 5 wt % in ethanol): vasodilatory effect was observed; Vasodilatory effect in words ([1]; 5 wt % in ethanol, listed as Compound B-2): showed a vasodilating effect; Vasodilatory effect, note in words (onset, duration) ([1]; 5 wt % in liquid paraffin): did not show a vasodilating effect
9 | COc1ccc(COC(=O)CCCCCCC(C)C)cc1 [compound C, 4-methoxybenzyl 8-methylnonanoate] | – | ∘ | strong vasodilating effect | not decomposed even after purification by PTLC | 90.2% | –
10 | COc1ccc(COC(=O)CCCCCC(C)C)cc1 [compound C-1, 4-methoxybenzyl 7-methyloctanoate] | – | Δ | weak vasodilating effect | – | – | –
11 | CCC(C)CCCCC(=O)OCc1ccc(OC)cc1 (stereo not shown) [compound C-2, 4-methoxybenzyl 6-methyloctanoate] | x | x | did not show a vasodilating effect | – | – | –
12 | COc1ccc(COC(=O)CCCCCCC(C)C)cc1OC [compound D, Veratryl 8-methylnonanoate] | – | x | did not show a vasodilating effect | not decomposed even after purification by PTLC | 89.1% | –
13 | CC(C)CCCCCCC(=O)OCc1ccc(O)cc1 [compound F, 4-hydroxybenzyl 8-methylnonanoate] | – | Δ | weak vasodilating effect | – | – | –
14 | COc1cc(COC(=O)CCCCCCC(C)C)ccc1OC(C)=O [compound G, 4-acetoxy-3-methoxybenzyl 8-methylnonanoate] | – | ∘ | strong vasodilating effect | not decomposed even after purification by PTLC | 82.9% and 85.7% | –
15 | COc1cc(COC(=O)CCCC/C=C/C(C)C)ccc1OC(C)=O [compound G-1, 4-acetoxy-3-methoxybenzyl (E)-8-methyl-6-nonenoate] | – | ∘ | strong vasodilating effect | – | – | –
16 | CCOc1cc(COC(=O)CCCCCCC(C)C)ccc1O [compound H, 3-ethoxy-4-hydroxybenzyl 8-methylnonanoate] | – | ∘ | clear vasodilating effect, though the expression of the effect was slow | – | – | –
17 | COc1cc(COC(=O)CCCCCCC(C)C)ccc1O [dihydrocapsiate, 4-hydroxy-3-methoxybenzyl 8-methylnonanoate, reference compound] | – | ∘ | – | – | – | Vasodilatory effect for hairless mouse (red spots, visual) ([1]; 1 wt % in liquid paraffin): Δ
18 | COc1cc(COC(=O)CCCCCC(C)C)ccc1O [nordihydrocapsiate, 4-hydroxy-3-methoxybenzyl 7-methyl-octanoate, reference compound] | – | ∘ | – | – | – | Vasodilatory effect for hairless mouse (red spots, visual) ([1]; 1 wt % in liquid paraffin): Δ
19 | COc1cc(CO)ccc1O [vanillyl alcohol, reference compound] | x | x | – | – | – | –
20 | CCCCCCCCCC(=O)OCc1ccc(O)c(OC)c1 [vanillyl decanoate, reference compound] | – | – | – | decomposed by the contact with silica gel | 43.1% | –

Source: patent US7981460B2, “Substituted benzyl ester derivative and use thereof” (Ajinomoto Co., Inc., priority 2006, dated 2011)
